Drawing on patent US10344060B2 (priority 2013, dated 2019), this text covers IC50, Nav1.4/Nav1.7 and Nav1.5/Nav1.7 for seven compounds.

The target of the experiment is hNav1.7 (Homo sapiens, UniProt Q15858). In words: cell-based. It counts as cell-based. As to conditions: for IC50: Table 12, PatchXpress, tonic block, read-out: PX hNav1.7 Tonic IC50; for Nav1.4/Nav1.7 / Nav1.5/Nav1.7: ratio of PX tonic IC50 values, Table 11.
Sequence of hNav1.7 (Q15858 whole entry): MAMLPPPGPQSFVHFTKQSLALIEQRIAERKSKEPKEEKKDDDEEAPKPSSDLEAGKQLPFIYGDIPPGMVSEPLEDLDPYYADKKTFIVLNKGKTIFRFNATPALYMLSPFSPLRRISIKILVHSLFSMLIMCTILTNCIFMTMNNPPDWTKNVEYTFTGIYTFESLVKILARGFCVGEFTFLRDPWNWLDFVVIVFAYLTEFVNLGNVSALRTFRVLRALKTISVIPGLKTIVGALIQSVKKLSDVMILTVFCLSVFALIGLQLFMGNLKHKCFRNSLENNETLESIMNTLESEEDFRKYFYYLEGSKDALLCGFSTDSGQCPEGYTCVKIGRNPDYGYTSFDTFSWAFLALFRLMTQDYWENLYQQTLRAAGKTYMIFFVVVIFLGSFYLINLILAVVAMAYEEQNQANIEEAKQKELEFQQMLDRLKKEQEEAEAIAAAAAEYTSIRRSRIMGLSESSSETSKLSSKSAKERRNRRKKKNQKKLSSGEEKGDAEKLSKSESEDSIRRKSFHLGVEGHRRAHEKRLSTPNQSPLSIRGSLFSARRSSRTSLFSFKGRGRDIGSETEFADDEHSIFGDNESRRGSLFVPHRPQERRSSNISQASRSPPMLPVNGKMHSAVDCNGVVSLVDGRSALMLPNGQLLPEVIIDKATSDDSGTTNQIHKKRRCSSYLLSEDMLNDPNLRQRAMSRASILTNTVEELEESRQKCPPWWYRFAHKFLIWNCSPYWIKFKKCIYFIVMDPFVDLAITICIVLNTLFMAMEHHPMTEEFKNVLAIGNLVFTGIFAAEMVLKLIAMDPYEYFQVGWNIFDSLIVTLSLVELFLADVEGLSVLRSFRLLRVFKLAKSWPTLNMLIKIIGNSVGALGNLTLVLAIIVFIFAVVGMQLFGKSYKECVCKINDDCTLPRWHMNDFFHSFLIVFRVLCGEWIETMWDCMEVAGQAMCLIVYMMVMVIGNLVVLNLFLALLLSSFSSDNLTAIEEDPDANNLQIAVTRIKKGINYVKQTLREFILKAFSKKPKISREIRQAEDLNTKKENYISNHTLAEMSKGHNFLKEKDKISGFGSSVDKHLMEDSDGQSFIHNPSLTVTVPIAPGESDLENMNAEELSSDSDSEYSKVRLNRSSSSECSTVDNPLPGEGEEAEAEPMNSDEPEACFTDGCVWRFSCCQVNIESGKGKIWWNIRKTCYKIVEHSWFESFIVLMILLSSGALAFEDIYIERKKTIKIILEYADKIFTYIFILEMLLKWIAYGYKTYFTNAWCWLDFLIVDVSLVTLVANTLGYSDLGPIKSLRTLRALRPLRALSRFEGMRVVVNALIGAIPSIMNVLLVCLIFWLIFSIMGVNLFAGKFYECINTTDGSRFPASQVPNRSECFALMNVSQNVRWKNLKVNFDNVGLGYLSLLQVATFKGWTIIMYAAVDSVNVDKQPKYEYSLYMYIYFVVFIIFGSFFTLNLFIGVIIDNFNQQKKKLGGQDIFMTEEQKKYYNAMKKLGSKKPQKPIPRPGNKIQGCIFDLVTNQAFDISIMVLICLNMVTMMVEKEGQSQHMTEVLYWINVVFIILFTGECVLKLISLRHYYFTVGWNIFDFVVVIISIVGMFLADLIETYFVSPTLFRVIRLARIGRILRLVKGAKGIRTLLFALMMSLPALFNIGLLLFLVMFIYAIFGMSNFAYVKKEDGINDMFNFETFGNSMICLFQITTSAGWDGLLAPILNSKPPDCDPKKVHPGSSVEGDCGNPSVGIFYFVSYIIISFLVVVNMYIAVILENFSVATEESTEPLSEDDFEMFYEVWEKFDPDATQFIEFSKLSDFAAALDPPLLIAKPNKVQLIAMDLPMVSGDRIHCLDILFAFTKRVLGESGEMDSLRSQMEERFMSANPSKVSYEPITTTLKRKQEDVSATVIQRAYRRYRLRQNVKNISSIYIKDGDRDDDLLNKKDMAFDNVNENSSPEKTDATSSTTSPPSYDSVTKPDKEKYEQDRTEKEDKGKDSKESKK

With `C#CC[C@H](N)C(=O)N[C@@H](Cc1ccc(O)cc1)C(=O)N[C@H]1CSSC[C@@H]2NC(=O)[C@@H]3CSSC[C@@H](C(=O)N[C@@H](CCCNC(=N)N)C(=O)N[C@@H](CCCCN)C(=O)N[C@@H](CCC(=O)O)C(=O)N[C@H](C(N)=O)[C@@H](C)CC)NC(=O)[C@H](Cc4c[nH]c5ccccc45)NC(=O)[C@H](CC(C)C)NC(=O)[C@H](CCCCN)NC(=O)[C@H](CSSC[C@H](NC(=O)[C@H]([C@@H](C)O)NC(=O)[C@H](Cc4cccc5ccccc45)NC(=O)[C@H](CCCC)NC(=O)[C@H](Cc4c[nH]c5ccccc45)NC(=O)[C@H](CCCCN)NC(=O)[C@H](CCC(N)=O)NC1=O)C(=O)N[C@@H](CC(=O)O)C(=O)N[C@@H](CO)C(=O)N[C@@H](CCCCN)C(=O)N[C@@H](CCCNC(=N)N)C(=O)N[C@@H](C)C(=O)N3)NC(=O)[C@H](CCCNC(=N)N)NC(=O)[C@H](CC(C)C)NC(=O)CNC(=O)[C@H](CCC(=O)O)NC2=O` [compound 846], the half-maximal inhibitory concentration (IC50) turned out to be 0.825 µM.
As for `CCCC[C@@H]1NC(=O)[C@H](Cc2c[nH]c3ccccc23)NC(=O)[C@H](CCCCN)NC(=O)[C@H](CCC(N)=O)NC(=O)[C@@H](NC(=O)[C@H](Cc2ccc(O)cc2)NC(=O)[C@@H](N)CC#N)CSSC[C@@H]2NC(=O)[C@@H]3CSSC[C@@H](C(=O)N[C@@H](CCCNC(=N)N)C(=O)N[C@@H](CCCCN)C(=O)N[C@@H](CCC(=O)O)C(=O)N[C@H](C(N)=O)[C@@H](C)CC)NC(=O)[C@H](Cc4c[nH]c5ccccc45)NC(=O)[C@H](CC(C)C)NC(=O)[C@H](CCCCN)NC(=O)[C@H](CSSC[C@H](NC(=O)[C@H]([C@@H](C)O)NC(=O)[C@H](Cc4c[nH]c5ccccc45)NC1=O)C(=O)N[C@@H](CC(=O)O)C(=O)N[C@@H](CO)C(=O)N[C@@H](CCCCN)C(=O)N[C@@H](CCCNC(=N)N)C(=O)N[C@@H](CCCCNC(=O)CCOCCOCCOCCOCCOCCOCCOCCOCCOCCOCCOCCOCCN)C(=O)N3)NC(=O)[C@H](CCCNC(=N)N)NC(=O)[C@H](CC(C)C)NC(=O)CNC(=O)[C@H](CCC(=O)O)NC2=O` [compound 455], the Nav1.4/Nav1.7 worked out at 86 and the Nav1.5/Nav1.7 is on record as 1101.
As to `CCCC[C@@H]1NC(=O)[C@H](Cc2c[nH]c3ccccc23)NC(=O)[C@H](CCCCN)NC(=O)[C@H](CCC(N)=O)NC(=O)[C@@H](NC(=O)[C@H](Cc2ccc(O)cc2)NC(=O)[C@@H](N)CCCCNC(=O)CCOCCOCCOCCOCCOCCOCCOCCOCCOCCOCCOCCOCCN)CSSC[C@@H]2NC(=O)[C@@H]3CSSC[C@@H](C(=O)N[C@@H](CCCNC(=N)N)C(=O)N[C@@H](CCCCN)C(=O)N[C@@H](CCC(=O)O)C(=O)N[C@@H](Cc4c[nH]c5ccccc45)C(N)=O)NC(=O)[C@H](Cc4c[nH]c5ccccc45)NC(=O)[C@H](CC(C)C)NC(=O)[C@H](CCCCN)NC(=O)[C@H](CSSC[C@H](NC(=O)[C@H]([C@@H](C)O)NC(=O)[C@H](Cc4c[nH]c5ccccc45)NC1=O)C(=O)N[C@@H](CC(=O)O)C(=O)N[C@@H](CO)C(=O)N[C@@H](CCCCN)C(=O)N[C@@H](CCCNC(=N)N)C(=O)N[C@@H](C)C(=O)N3)NC(=O)[C@H](CCCNC(=N)N)NC(=O)[C@H](CC(C)C)NC(=O)CNC(=O)[C@H](CCC(=O)O)NC2=O` [compound 458], the Nav1.4/Nav1.7 is 38 and the Nav1.5/Nav1.7 is reported as 202.
Regarding `CCCC[C@@H]1NC(=O)[C@H](Cc2c[nH]c3ccccc23)NC(=O)[C@H](CCCCN)NC(=O)[C@H](CCC(N)=O)NC(=O)[C@@H](NC(=O)[C@H](Cc2ccc(O)cc2)NC(=O)[C@@H](N)CCC(C)C)CSSC[C@@H]2NC(=O)[C@@H]3CSSC[C@@H](C(=O)N[C@@H](CCCNC(=N)N)C(=O)N[C@@H](CCCCN)C(=O)N[C@H](C(=O)N[C@H](C(N)=O)[C@@H](C)CC)[C@@H](C)CC)NC(=O)[C@H](Cc4c[nH]c5ccccc45)NC(=O)[C@H](CC(C)C)NC(=O)[C@H](CCCCN)NC(=O)[C@H](CSSC[C@H](NC(=O)[C@H]([C@@H](C)O)NC(=O)[C@H](Cc4c[nH]c5ccccc45)NC1=O)C(=O)N[C@@H](CC(=O)O)C(=O)N[C@@H](CO)C(=O)N[C@@H](CCCCN)C(=O)N[C@@H](CCCNC(=N)N)C(=O)N[C@@H](C)C(=O)N3)NC(=O)[C@H](CCCNC(=N)N)NC(=O)[C@H](CC(C)C)NC(=O)CNC(=O)[C@H](CCC(=O)O)NC2=O` [compound 377], the Nav1.4/Nav1.7 came out at 13 and the Nav1.5/Nav1.7 was 615.
On the same counts, the results for `CCCC[C@@H]1NC(=O)[C@H](Cc2c[nH]c3ccccc23)NC(=O)[C@H](CCCCN)NC(=O)[C@H](CCC(N)=O)NC(=O)[C@@H](NC(=O)[C@H](Cc2ccc(O)cc2)NC(=O)[C@H](CCC)NC(=O)[C@@H](N)CC(C)C)CSSC[C@@H]2NC(=O)[C@@H]3CSSC[C@@H](C(=O)N[C@@H](CCCNC(=N)N)C(=O)N[C@@H](CCCCN)C(=O)N[C@@H](CCC(=O)O)C(=O)N[C@H](C(N)=O)[C@@H](C)CC)NC(=O)[C@H](Cc4c[nH]c5ccccc45)NC(=O)[C@H](CC(C)C)NC(=O)[C@H](CCCCN)NC(=O)[C@H](CSSC[C@H](NC(=O)[C@H]([C@@H](C)O)NC(=O)[C@H](Cc4c[nH]c5ccccc45)NC1=O)C(=O)N[C@@H](CC(=O)O)C(=O)N[C@@H](CO)C(=O)N[C@@H](CCCCN)C(=O)N[C@@H](CCCNC(=N)N)C(=O)N[C@@H](CCCCNC(=O)CCOCCOCCOCCOCCOCCOCCOCCOCCOCCOCCOCCOCCN)C(=O)N3)NC(=O)[C@H](CCCNC(=N)N)NC(=O)[C@H](CC(C)C)NC(=O)CNC(=O)[C@H](CCC(=O)O)NC2=O` [compound 470] are 34 and 372.
Consider `C#CC[C@@H]1NC(=O)[C@@H]2CSSC[C@H](NC(=O)[C@H](CCC(=O)O)NC(=O)[C@@H](N)CC#N)C(=O)N[C@@H](CCC(N)=O)C(=O)N[C@@H](CCCCN)C(=O)N[C@@H](Cc3c[nH]c4ccccc34)C(=O)N[C@@H](CCCC)C(=O)N[C@@H](Cc3c[nH]c4ccccc34)C(=O)N[C@@H]([C@@H](C)O)C(=O)N[C@H]3CSSC[C@H](NC(=O)[C@H](CCCNC(=N)N)NC(=O)[C@H](CC(C)C)NC(=O)CNC1=O)C(=O)N[C@@H](CCCCN)C(=O)N[C@@H](CC(C)C)C(=O)N[C@@H](Cc1c[nH]c4ccccc14)C(=O)N[C@H](C(=O)N[C@@H](CCCNC(=N)N)C(=O)N[C@@H](CCCCN)C(=O)N[C@@H](CCC(=O)O)C(=O)N[C@H](C(N)=O)[C@@H](C)CC)CSSC[C@H](NC(=O)[C@H](CCC(=O)O)NC(=O)[C@H](CCCNC(=N)N)NC(=O)[C@H](CCC(=O)O)NC(=O)[C@H](CO)NC(=O)[C@H](CC(=O)O)NC3=O)C(=O)N2` [compound 756], for which the IC50 is over 1 µM.
For `C#CC[C@H](N)C(=O)N[C@@H](Cc1ccc(O)cc1)C(=O)N[C@H]1CSSC[C@@H]2NC(=O)[C@@H]3CSSC[C@@H](C(=O)N[C@@H](CCCNC(=N)N)C(=O)N[C@@H](CCCCN)C(=O)N[C@@H](CCC(=O)O)C(=O)N[C@H](C(N)=O)[C@@H](C)CC)NC(=O)[C@H](Cc4c[nH]c5ccccc45)NC(=O)[C@H](CCC)NC(=O)[C@H](CCCCN)NC(=O)[C@H](CSSC[C@H](NC(=O)[C@H]([C@@H](C)O)NC(=O)[C@H](Cc4c[nH]c5ccccc45)NC(=O)[C@H](CCCC)NC(=O)[C@H](Cc4c[nH]c5ccccc45)NC(=O)[C@H](CCCCN)NC(=O)[C@H](CCC(N)=O)NC1=O)C(=O)N[C@@H](CC(=O)O)C(=O)N[C@@H](CO)C(=O)N[C@@H](CCCCN)C(=O)N[C@@H](CCCNC(=N)N)C(=O)N[C@@H](C)C(=O)N3)NC(=O)[C@H](CCCNC(=N)N)NC(=O)[C@H](CC(C)C)NC(=O)CNC(=O)[C@H](CCC(=O)O)NC2=O` [compound 857], the IC50 stood at 0.00303 µM.

The IC50 is the midpoint of a concentration-inhibition curve.
